In publication PMC7413254 (Nature Communications, 2020):
Like-named read-outs stand apart in the source and are kept apart here. Where no end group is shown, it is not given here.

Assays:
Assay type in all cases: cell-based
PfCRT^Ecu1110 [1] = biological target: T1, PfCRT^Ecu1110 (Plasmodium falciparum, UniProt Q9N623, A220S/I356L/K76T/N326D); experiment: [3H]CQ uptake into Xenopus oocytes, cis-inhibition by unlabelled solute
Procedure, shortened: (§1)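 Oocytes expressing PfCRT isoforms, or non-expressing controls, were incubated 1.5 h at 27.5 °C in ND96 buffer pH 5.5 (96 mM NaCl, 2 mM KCl, 1 mM MgCl2, 1.8 mM CaCl2, 10 mM MES, 10 mM Tris-base), measuring uptake from acidic medium into cytosol. Oocytes were washed ice-cold, SDS-lysed and counted by scintillation.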

PfCRT^Dd2 [2] = biological target: T2, PfCRT^Dd2 (Plasmodium falciparum, UniProt Q9N623, A220S/I356T/K76T/M74I/N326S/N75E/Q271E/R371I); experiment: as above; settings: read-out: PfCRT-mediated [3H]CQ transport, cis-inhibition (% PfCRTDd2 control)
T2 sequence (Q9N623 whole entry A220S/I356T/K76T/M74I/N326S/N75E/Q271E/R371I): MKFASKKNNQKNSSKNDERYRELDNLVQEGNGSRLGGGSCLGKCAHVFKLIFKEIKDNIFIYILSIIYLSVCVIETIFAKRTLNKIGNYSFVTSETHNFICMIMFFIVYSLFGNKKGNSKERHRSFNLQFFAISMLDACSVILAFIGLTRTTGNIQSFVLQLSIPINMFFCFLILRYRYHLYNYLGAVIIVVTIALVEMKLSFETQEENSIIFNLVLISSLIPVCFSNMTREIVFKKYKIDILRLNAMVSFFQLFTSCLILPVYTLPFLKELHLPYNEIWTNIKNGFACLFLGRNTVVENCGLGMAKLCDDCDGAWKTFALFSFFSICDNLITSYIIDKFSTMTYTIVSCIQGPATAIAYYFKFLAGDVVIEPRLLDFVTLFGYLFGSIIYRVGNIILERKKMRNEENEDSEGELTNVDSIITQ
Procedure, shortened: as §1

PfCRT^3D7 = PfCRT^3D7 (Plasmodium falciparum, UniProt Q8IBZ9); experiment: cell-based; settings: for [3H]CQ transport, PfCRT3D7 (% PfCRTDd2 control): 45 mM VF-6 injected, 96 mM Na+ injection buffer; for activity at 2000 µM: read-out: [3H]CQ transport, PfCRT3D7, trans-stimulation, solute 2 mM; for [3H]CQ transport, PfCRT3D7 (% PfCRT3D7 control): solute 45 mM injected (estimated intracellular)
Chain of PfCRT^3D7 (Q8IBZ9 59-398): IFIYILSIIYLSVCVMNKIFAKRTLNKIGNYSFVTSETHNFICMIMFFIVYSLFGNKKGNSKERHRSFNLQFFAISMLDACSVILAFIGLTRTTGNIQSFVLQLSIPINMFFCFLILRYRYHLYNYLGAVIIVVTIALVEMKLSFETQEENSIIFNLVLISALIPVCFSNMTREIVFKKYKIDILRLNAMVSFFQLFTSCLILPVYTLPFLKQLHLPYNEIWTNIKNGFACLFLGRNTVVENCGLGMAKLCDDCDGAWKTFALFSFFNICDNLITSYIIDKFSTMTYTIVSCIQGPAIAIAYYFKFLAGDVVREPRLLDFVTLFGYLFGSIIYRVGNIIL
Procedure, shortened: (§2)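 Transport measured in Xenopus oocytes expressing the transporters, 1.5 h at 27.5 °C in ND96 pH 5.5 unless noted. For trans-stimulation, VF-6 injected in 25 nL ND96 at pH 5.0–7.0 or Na^+-free (choline) buffer; intracellular levels based on ~400 nL oocyte volume. Ten oocytes per treatment, ≥4 experiments.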

PfCRT^Ecu1110 [3] = biological target: T1, PfCRT^Ecu1110; experiment: cell-based; settings: […]; for activity at 45000 µM: read-out: [3H]CQ transport, PfCRTEcu1110 (% PfCRTDd2 control), 45 mM VF-6 injected, 0 mM Na+ injection buffer; for activity at 2000 µM: read-out: [3H]CQ transport, PfCRTEcu1110, trans-stimulation, solute 2 mM
Procedure, shortened: as §2

PfCRT^Dd2 [4] = biological target: T2, PfCRT^Dd2; experiment: cell-based; settings: […]; for activity at 2000 µM: pH 5.5, read-out: [3H]CQ transport, PfCRTDd2, trans-stimulation, solute 2 mM
Procedure, shortened: as §2

PfNT1 = biological target: T3, PfNT1 (Plasmodium falciparum, UniProt Q8IDM6); experiment: cell-based; settings: for activity at 2000 µM: read-out: [3H]CQ transport, PfNT1, trans-stimulation, solute 2 mM
T3 construct: expressed in transfected cells; host or cells: Xenopus laevis oocytes (stage V-VI), cRNA-injected
T3 sequence (Q8IDM6 whole entry): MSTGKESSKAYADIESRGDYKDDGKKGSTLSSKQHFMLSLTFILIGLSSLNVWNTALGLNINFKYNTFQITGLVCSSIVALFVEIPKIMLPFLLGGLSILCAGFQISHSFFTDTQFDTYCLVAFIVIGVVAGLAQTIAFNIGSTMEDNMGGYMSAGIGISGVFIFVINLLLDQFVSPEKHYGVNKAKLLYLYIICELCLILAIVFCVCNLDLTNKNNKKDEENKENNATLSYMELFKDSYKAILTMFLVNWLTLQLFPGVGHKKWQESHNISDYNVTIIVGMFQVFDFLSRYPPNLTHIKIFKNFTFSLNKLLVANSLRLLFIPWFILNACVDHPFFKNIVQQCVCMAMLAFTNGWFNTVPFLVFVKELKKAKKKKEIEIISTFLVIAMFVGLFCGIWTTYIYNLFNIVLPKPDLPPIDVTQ
Procedure, shortened: as §2

[5] = read-out: PfCRT-mediated [3H]CQ transport, cis-inhibition (% PfCRTEcu1110 control)
[6] = read-out: [3H]CQ transport (% PfCRTEcu1110 control), cis-inhibition, PfCRTEcu1110, SEM

T1 sequence (Q9N623 whole entry A220S/I356L/K76T/N326D, canonical isoform): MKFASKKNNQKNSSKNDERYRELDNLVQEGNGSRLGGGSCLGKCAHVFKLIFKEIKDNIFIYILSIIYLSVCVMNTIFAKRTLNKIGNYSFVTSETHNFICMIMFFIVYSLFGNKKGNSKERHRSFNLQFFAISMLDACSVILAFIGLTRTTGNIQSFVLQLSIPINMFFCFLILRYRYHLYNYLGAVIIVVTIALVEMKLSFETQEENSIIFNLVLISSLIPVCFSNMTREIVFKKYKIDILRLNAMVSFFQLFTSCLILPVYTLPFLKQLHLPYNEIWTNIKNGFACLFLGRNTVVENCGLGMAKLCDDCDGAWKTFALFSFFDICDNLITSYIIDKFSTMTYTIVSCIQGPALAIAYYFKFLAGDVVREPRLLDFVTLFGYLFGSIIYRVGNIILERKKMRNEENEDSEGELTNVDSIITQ

VDPVNF [VF-6]
inhibition at 500 µM (PfCRT^Ecu1110 [1]; [5]): 50 ± 2.4%
inhibition at 1000 µM (PfCRT^Ecu1110 [1]; [5]): 39 ± 4.1%
inhibition at 2000 µM (PfCRT^Ecu1110 [1]; [5]): 26 ± 2.1%
inhibition at 500 µM (PfCRT^Ecu1110 [1]; [6]): 16 ± 0.3%
inhibition at 1000 µM (PfCRT^Ecu1110 [1]; [6]): 12 ± 0.2%
inhibition at 2000 µM (PfCRT^Ecu1110 [1]; [6]): 8 ± 0.04%
inhibition at 500 µM (PfCRT^Dd2 [2]): 30 ± 1.1%
inhibition at 1000 µM (PfCRT^Dd2 [2]): 21 ± 0.8%
inhibition at 2000 µM (PfCRT^Dd2 [2]): 8.1 ± 0.2%
[3H]CQ transport, PfCRT3D7 (% PfCRTDd2 control) (PfCRT^3D7; Experiment 1): 22.53 % PfCRTDd2 control
[3H]CQ transport, PfCRT3D7 (% PfCRTDd2 control) (PfCRT^3D7; Experiment 2): 23.78 % PfCRTDd2 control
[3H]CQ transport, PfCRT3D7 (% PfCRTDd2 control) (PfCRT^3D7; Experiment 3): 24.68 % PfCRTDd2 control
[3H]CQ transport, PfCRT3D7 (% PfCRTDd2 control) (PfCRT^3D7; Experiment 4): 25.32 % PfCRTDd2 control
[3H]CQ transport, PfCRT3D7 (% PfCRTDd2 control) (PfCRT^3D7; Experiment 5): 26.32 % PfCRTDd2 control
activity at 5000 µM (PfCRT^3D7; […], read-out: PfCRT-mediated [3H]CQ transport, trans-stimulation (% PfCRT3D7 control), [test solute]i = 5 mM (intracellular), PfCRT3D7 oocytes, normalised to oocyte type control): 147 ± 5.2%
activity at 45000 µM (PfCRT^3D7; […], read-out: PfCRT-mediated [3H]CQ transport, trans-stimulation (% PfCRT3D7 control), [test solute]i = 45 mM (intracellular; 30 mM for some solutes due to solubility), PfCRT3D7 oocytes, normalised to oocyte type control): 195 ± 4.6%
activity at 45000 µM (PfCRT^3D7; […], read-out: [3H]CQ transport, PfCRT3D7 (% PfCRTDd2 control), 45 mM VF-6 injected, 0 mM Na+ injection buffer, Experiment 1): 25.3%
activity at 45000 µM (PfCRT^3D7; […], read-out: [3H]CQ transport, PfCRT3D7 (% PfCRTDd2 control), 45 mM VF-6 injected, 0 mM Na+ injection buffer, Experiment 2): 26.4%
activity at 45000 µM (PfCRT^3D7; […], read-out: [3H]CQ transport, PfCRT3D7 (% PfCRTDd2 control), 45 mM VF-6 injected, 0 mM Na+ injection buffer, Experiment 3): 25.3%
activity at 45000 µM (PfCRT^3D7; […], read-out: [3H]CQ transport, PfCRT3D7 (% PfCRTDd2 control), 45 mM VF-6 injected, 0 mM Na+ injection buffer, Experiment 4): 26.8%
activity at 45000 µM (PfCRT^3D7; […], read-out: [3H]CQ transport, PfCRT3D7 (% PfCRTDd2 control), 45 mM VF-6 injected, 0 mM Na+ injection buffer, Experiment 5): 27.3%
activity at 2000 µM (PfCRT^3D7; […], Experiment 1): 22.9%
activity at 2000 µM (PfCRT^3D7; […], Experiment 2): 19.1%
activity at 2000 µM (PfCRT^3D7; […], Experiment 3): 21.1%
activity at 2000 µM (PfCRT^3D7; […], Experiment 4): 21.8%
[3H]CQ transport, PfCRT3D7 (% PfCRT3D7 control) (PfCRT^3D7; trans-stimulation, Experiment 1): 187.43 % PfCRT3D7 control
[3H]CQ transport, PfCRT3D7 (% PfCRT3D7 control) (PfCRT^3D7; trans-stimulation, Experiment 2): 206.32 % PfCRT3D7 control
[3H]CQ transport, PfCRT3D7 (% PfCRT3D7 control) (PfCRT^3D7; trans-stimulation, Experiment 3): 201.32 % PfCRT3D7 control
[3H]CQ transport, PfCRT3D7 (% PfCRT3D7 control) (PfCRT^3D7; trans-stimulation, Experiment 4): 199.25 % PfCRT3D7 control
[3H]CQ transport (% PfCRT3D7 control), trans-stimulation, PfCRT3D7 (PfCRT^3D7; trans-stimulation, [test solute]i = 5 mM (injected), PfCRT-mediated component (background subtracted), sheet title says normalised to PfCRTDd2 control, mean ± SEM, SEM): 1.7 ± 0.02 % PfCRT3D7 control
activity at 5000 µM (PfCRT^Ecu1110 [3]; pH 5.5, read-out: PfCRT-mediated [3H]CQ transport, trans-stimulation (% PfCRTEcu1110 control), [test solute]i = 5 mM (intracellular), PfCRTEcu1110 oocytes, normalised to oocyte type control): 126 ± 2.4%
activity at 45000 µM (PfCRT^Ecu1110 [3]; Experiment 1): 47.7%
activity at 45000 µM (PfCRT^Ecu1110 [3]; Experiment 2): 47.6%
activity at 45000 µM (PfCRT^Ecu1110 [3]; Experiment 3): 50.8%
activity at 45000 µM (PfCRT^Ecu1110 [3]; Experiment 4): 49.2%
activity at 45000 µM (PfCRT^Ecu1110 [3]; Experiment 5): 51.1%
activity at 2000 µM (PfCRT^Ecu1110 [3]; Experiment 1): 44.2%
activity at 2000 µM (PfCRT^Ecu1110 [3]; Experiment 2): 47.3%
activity at 2000 µM (PfCRT^Ecu1110 [3]; Experiment 3): 38.4%
activity at 2000 µM (PfCRT^Ecu1110 [3]; Experiment 4): 45.6%
activity at 5000 µM (PfCRT^Dd2 [4]; pH 5.5, read-out: PfCRT-mediated [3H]CQ transport, trans-stimulation (% PfCRTDd2 control), [test solute]i = 5 mM (intracellular), PfCRTDd2 oocytes, normalised to oocyte type control): 103 ± 3.1%
activity at 5000 µM (PfCRT^Dd2 [4]; pH 5.5, read-out: [3H]CQ transport (% PfCRTDd2 control), trans-stimulation, PfCRTDd2, trans-stimulation, [test solute]i = 5 mM (injected), PfCRT-mediated component (background subtracted), mean ± SEM, SEM): 103 ± 3.1%
activity at 45000 µM (PfCRT^Dd2 [4]; pH 5.5, read-out: [3H]CQ transport (% PfCRTDd2 control), trans-stimulation, PfCRTDd2, trans-stimulation, [test solute]i = 45 mM (30 mM for some solutes due to solubility), PfCRT-mediated component (background subtracted), mean ± SEM, SEM): 112 ± 2.1%
activity at 2000 µM (PfCRT^Dd2 [4]; Experiment 1): 120%
activity at 2000 µM (PfCRT^Dd2 [4]; Experiment 2): 119%
activity at 2000 µM (PfCRT^Dd2 [4]; Experiment 3): 120%
activity at 2000 µM (PfCRT^Dd2 [4]; Experiment 4): 112%
[3H]CQ transport, PfNT1 (% PfCRTDd2 control) (PfNT1; 45 mM VF-6 injected, 0 mM Na+ injection buffer, Experiment 1): 3.36 % PfCRTDd2 control
[3H]CQ transport, PfNT1 (% PfCRTDd2 control) (PfNT1; 45 mM VF-6 injected, 0 mM Na+ injection buffer, Experiment 2): 3.47 % PfCRTDd2 control
[3H]CQ transport, PfNT1 (% PfCRTDd2 control) (PfNT1; 45 mM VF-6 injected, 0 mM Na+ injection buffer, Experiment 3): 3.88 % PfCRTDd2 control
[3H]CQ transport, PfNT1 (% PfCRTDd2 control) (PfNT1; 45 mM VF-6 injected, 0 mM Na+ injection buffer, Experiment 4): 3.57 % PfCRTDd2 control
[3H]CQ transport, PfNT1 (% PfCRTDd2 control) (PfNT1; 45 mM VF-6 injected, 0 mM Na+ injection buffer, Experiment 5): 3.69 % PfCRTDd2 control
[3H]CQ transport, PfNT1 (% PfCRTDd2 control) (PfNT1; 45 mM VF-6 injected, 96 mM Na+ injection buffer, Experiment 1): 3.72 % PfCRTDd2 control
[3H]CQ transport, PfNT1 (% PfCRTDd2 control) (PfNT1; 45 mM VF-6 injected, 96 mM Na+ injection buffer, Experiment 2): 3.21 % PfCRTDd2 control
[3H]CQ transport, PfNT1 (% PfCRTDd2 control) (PfNT1; 45 mM VF-6 injected, 96 mM Na+ injection buffer, Experiment 3): 3.67 % PfCRTDd2 control
[3H]CQ transport, PfNT1 (% PfCRTDd2 control) (PfNT1; 45 mM VF-6 injected, 96 mM Na+ injection buffer, Experiment 4): 3.45 % PfCRTDd2 control
[3H]CQ transport, PfNT1 (% PfCRTDd2 control) (PfNT1; 45 mM VF-6 injected, 96 mM Na+ injection buffer, Experiment 5): 3.27 % PfCRTDd2 control
activity at 2000 µM (PfNT1; Experiment 1): 2.65%
activity at 2000 µM (PfNT1; Experiment 2): 2.51%
activity at 2000 µM (PfNT1; Experiment 3): 2.61%
activity at 2000 µM (PfNT1; Experiment 4): 2.73%
[3H]CQ transport, PfNT1 (% PfCRTDd2 control) (PfNT1; trans-stimulation, solute 45 mM injected (estimated intracellular), Experiment 1): 2.65 % PfCRTDd2 control
[3H]CQ transport, PfNT1 (% PfCRTDd2 control) (PfNT1; trans-stimulation, solute 45 mM injected (estimated intracellular), Experiment 2): 2.51 % PfCRTDd2 control
[3H]CQ transport, PfNT1 (% PfCRTDd2 control) (PfNT1; trans-stimulation, solute 45 mM injected (estimated intracellular), Experiment 3): 2.61 % PfCRTDd2 control
[3H]CQ transport, PfNT1 (% PfCRTDd2 control) (PfNT1; trans-stimulation, solute 45 mM injected (estimated intracellular), Experiment 4): 2.73 % PfCRTDd2 control
